The subject of the experiment is NQO1 specific enzyme activity in BEAS-2B cells. As to the kind of experiment: BEAS-2B NQO1 MTT assay. The conditions noted are these: Homo sapiens, BEAS-2B, 48 h, read-out: EC50 of NQO1 specific activity induction. It is filed as cell-based. In short, it runs like this: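 BEAS-2B cells treated with compound 48 h at 37° C, 5% CO2, then lysed; NQO1 activity in lysate measured kinetically by MTT cocktail at Absorbance 570 nm over 30 min. EC50 for induction from Delta OD/min versus log concentration, 3-parameter fit; Cell Titer Glo run on lysate aliquot.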
Background: Tetrazolium dyes change colour on reduction, which living cells bring about.

Where [1] appears, read: BEAS-2B cells, 48 hours with compound, MTT readout.

For 24 compounds, EC50 results are on record in patent publication US10604509B2, “Nrf2 regulators” (GlaxoSmithKline Intellectual Property Development Limited, priority 2015, dated 2020).

SMILES strings stand for the structures. Where a name gives a salt, the structure may show the parent alone. Read-outs that look alike come from different tables or passages of the source.

Regarding `CC[C@@H]1CN(Cc2nc(C(c3ccc4c(nnn4C)c3C)C(C)(C)C(=O)O)ccc2C)Cc2cnccc2O1` (stereo partly drawn) [Example 212, 3-(1,4-Dimethyl-1H-benzo[d][1,2,3]triazol-5-yl)-3-(6-(((R)-2-ethyl-2,3-dihydropyrido[3,4-f][1,4]oxazepin-4(5H)-yl)methyl)-5-methylpyridin-2-yl)-2,2-dimethylpropanoic Acid, Formic Acid Salt], under setting [1], the EC50 (in general, the concentration at which the effect is half-maximal) lay within 10 to 100 nM.

Turning to `Cc1c(C(CC(=O)O)c2ccc(Cl)c(CN3Cc4ncccc4OC(C)(C)C3)c2)ccc2c1nnn2C` (single isomer, unassigned; isomer 1) [Example 262], the EC50 under setting [1] fell in the range of 10 to 100 nM.

For the compound `Cc1ccc(C(c2ccc3c(nnn3C)c2C)C(C)(C)C(=O)O)cc1Cn1ccnc1CN1CCOCC1` (stereo not drawn) [Example 142, 3-(1,4-Dimethyl-1H-benzo[d][1,2,3]triazol-5-yl)-2,2-dimethyl-3-(4-methyl-3-((2-(morpholinomethyl)-1H-imidazol-1-yl)methyl)phenyl) propanoic acid, trifluoroacetic acid salt], the EC50 under setting [1] fell in the range of 100 to 1000 nM.

`CC[C@@H]1CN(Cc2cc(C(CC(=O)O)c3ccc4c(nnn4C)c3C)ccc2C)Cc2ccc(C)cc2O1` (stereo partly drawn) [Example 85, Ammoniumn 3-(1,4-Dimethyl-1H-benzo[d][1,2,3]triazol-5-yl)-3-(3-(((R)-2-ethyl-8-methyl-2,3-dihydrobenzo[f][1,4]oxazepin-4(5H)-yl)methyl)-4-methyphenyl)propanoate]: the EC50 under setting [1] is 100 to 1000 nM.

Turning to `CCn1cc(CCC(c2ccc(C)c(CN3Cc4ncccc4OC(C)(C)C3)c2)C(C)(C)C(=O)O)nn1` (stereo not drawn) [Example 221, 3-(3-((2,2-Dimethyl-2,3-dihydropyrido[2,3-f][1,4]oxazepin-4(5H)-yl)methyl)-4-methylphenyl)-5-(1-ethyl-1H-1,2,3-triazol-4-yl)-2,2-dimethylpentanoic Acid], under setting [1], the EC50 lay in the range of 10 to 100 nM.

Take `CCn1nnc2c(F)c([C@@H](CC(=O)O)c3ccc(C)c(CN4Cc5ccccc5OC(C)(C)C4)c3)ccc21` [Example 64, (S)-3-(3-((2,2-Dimethyl-2,3-dihydrobenzo[f][1,4]oxazepin-4(5H)-yl)methyl)-4-methylphenyl)-3-(1-ethyl-4-fluoro-1H-benzo[d][1,2,3]triazol-5-yl)propanoic Acid]: the EC50 under setting [1] fell in the range of 10 to 100 nM.

In the case of `CCn1nnc2c(Cl)c([C@H](c3ccc(C)c(CN4Cc5cccnc5OC(C)(C)C4)c3)[C@@H](C)C(=O)O)ccc21` [Example 194, (2R,3S)-3-(4-Chloro-1-ethyl-1H-benzo[d][1,2,3]triazol-5-yl)-3-(3-((2,2-dimethyl-2,3-dihydropyrido[3,2-f][1,4]oxazepin-4(5H)-yl)methyl)-4-methylphenyl)-2-methylpropanoic acid], under setting [1], the EC50 fell in the range of 10 to 100 nM.

On to `CCn1nnc2c(C)c(C(CC(=O)O)c3ccc(C)c(CN4Cc5ccccc5O[C@@H](C)C4)c3)ccc21` (stereo partly drawn) [Example 97, 3-(1-Ethyl-4-methyl-1H-benzo[d][1,2,3]triazol-5-yl)-3-(4-methyl-3-(((S)-2-methyl-2,3-dihydrobenzo[f][1,4]oxazepin-4(5H)-yl)methyl)phenyl)propanoic Acid, Formic Acid Salt], for which the EC50 under setting [1] is 100 to 1000 nM.

Take `CC[C@@H]1CN(Cc2cc([C@@H](c3ccc4c(nnn4C)c3C)[C@H](C)C(=O)O)ccc2C)Cc2ccccc2O1` [Example 41, (2S,3S)-3-(1,4-Dimethyl-1H-benzo[d][1,2,3]triazol-5-yl)-3-(3-(((R)-2-ethyl-2,3-dihydrobenzo[f][1,4]oxazepin-4(5H)-yl)methyl)-4-methylphenyl)-2-methylpropanoic Acid]: the EC50 under setting [1] was in the range of 100 to 1000 nM.

For the compound `Cc1ccc(C(CC(=O)O)c2ccc3c(nnn3C)c2C)cc1Cc1nnnn1CC1CCCCC1` (stereo not drawn) [Example 134, 3-(3-((1-(Cyclohexylmethyl)-1H-tetrazol-5-yl)methyl)-4-methylphenyl)-3-(1,4-dimethyl-1H-benzo[d][1,2,3]triazol-5-yl)propanoic acid, hydrochloride salt], under setting [1], the EC50 fell in the range of 100 to 1000 nM.

`CC[C@@H]1CN(Cc2cc([C@@H](c3ccc4c(nnn4C)c3C)C(C)(C)C(=O)O)ccc2C)Cc2cnccc2O1` [Example 24, (S)-3-(1,4-Dimethyl-1H-benzo[d][1,2,3]triazol-5-yl)-3-(3-(((R)-2-ethyl-2,3-dihydropyrido[3,4-f][1,4]oxazepin-4(5H)-yl)methyl)-4-methylphenyl)-2,2-dimethylpropanoic Acid, Formic Acid Salt]: the EC50 was below 1 nM.

Regarding `COCC1CN(Cc2cc(C(CC(=O)O)c3ccc4c(nnn4C)c3C)ccc2C)Cc2ccccc2O1` (stereo not drawn) [Example 74, 3-(1,4-Dimethyl-1H-benzo[d][1,2,3]triazol-5-yl)-3-(3-((2-(methoxymethyl)-2,3-dihydrobenzo[f][1,4]oxazepin-4(5H)-yl)methyl)-4-methylphenyl)propanoic acid, formic acid salt], under setting [1], the EC50 was in the range of 100 to 1000 nM.

Consider `CC[C@@H]1CN(Cc2cc([C@@H](c3ccc4c(nnn4C)c3C)C(C)(C)C(=O)O)ccc2C)Cc2cncc(F)c2O1` [Example 28, (S)-3-(1,4-Dimethyl-1H-benzo[d][1,2,3]triazol-5-yl)-3-(3-(((R)-2-ethyl-9-fluoro-2,3-dihydropyrido[3,4-f][1,4]oxazepin-4(5H)-yl)methyl)-4-methylphenyl)-2,2-dimethylpropanoic acid], for which the EC50 under setting [1] is below 1 nM.

On to `CCC1CN(Cc2cc(C(CC(=O)O)c3ccc4c(nnn4C)c3C)ccc2C)Cc2ccccc2O1` (stereo not drawn) [Example 2, 3-(1,4-Dimethyl-1H-benzo[d][1,2,3]triazol-5-yl)-3-(3-((2-ethyl-2,3-dihydrobenzo[f][1,4]oxazepin-4(5H)-yl)methyl)-4-methylphenyl)propanoic Acid, Trifluoroacetic Acid Salt], for which the EC50 under setting [1] lay within 100 to 1000 nM.

Consider `CCc1ncc2c(n1)CN(Cc1cc(C(CC(=O)O)c3ccc4c(nnn4C)c3C)ccc1C)CC2` (stereo not drawn) [Example 13, Ammonium 3-(1,4-dimethyl-1H-benzo[d][1,2,3]triazol-5-yl)-3-(3-((2-ethyl-5,6-dihydropyrido[3,4-d]pyrimidin-7(8H)-yl)methyl)-4-methylphenyl)propanoate], for which the EC50 under setting [1] was in the range of 1000 to 10000 nM.

As to `Cc1ccc([C@@H](c2ccc3c(nnn3C)c2C)C(C)(C)C(=O)O)cc1Cn1ccnc1CC1CCCCCC1` [Example 235, (S)-3-(3-((2-(Cycloheptylmethyl)-1H-imidazol-1-yl)methyl)-4-methylphenyl)-3-(1,4-dimethyl-1H-benzo[d][1,2,3]triazol-5-yl)-2,2-dimethylpropanoic Acid], the EC50 under setting [1] was below 1 nM.

`CCC1CCN(Cc2nccn2Cc2cc([C@@H](c3ccc4c(nnn4C)c3C)C(C)(C)C(=O)O)ccc2Cl)CC1` [Example 237, (S)-3-(4-Chloro-3-((2-((4-ethylpiperidin-1-yl)methyl)-1H-imidazol-1-yl)methyl)phenyl)-3-(1,4-dimethyl-1H-benzo[d][1,2,3]triazol-5-yl)-2,2-dimethylpropanoic Acid]: the EC50 under setting [1] is below 1 nM.

As to `CC[C@@H]1CN(Cc2cc([C@H](CC(=O)O)c3ccc4c(nnn4CC)c3F)ccc2C)Cc2ccccc2O1` (relative stereo) [compound 182, rel-(S)-3-(3-(((R)-2-Ethyl-2,3-dihydrobenzo[f][1,4]oxazepin-4(5H)-yl)methyl)-4-methylphenyl)-3-(1-ethyl-4-fluoro-1H-benzo[d][1,2,3]triazol-5-yl)propanoic acid], under setting [1], the EC50 was in the range of 100 to 1000 nM.

Consider `COc1ccc(CN(Cc2cc(C(CC(=O)O)c3ccc4c(nnn4C)c3C)ccc2C)C2CC2)cc1` (stereo not drawn) [Example 20, 3-(3-((cyclopropyl(4-methoxybenzyl)amino)meth-yl)-4-methylphenyl)-3-(1,4-dimethyl-1H-benzo[d][1,2,3]triazol-5-yl)propanoic acid, formic acid salt], for which, under setting [1], the EC50 was 100 to 1000 nM.

For the compound `CC[C@@H]1CN(Cc2cc([C@@H](CC(=O)O)c3ccc4c(nnn4C)c3C)ccc2C)Cc2cccc(F)c2O1` [Example 60, (R)-3-(1,4-Dimethyl-1H-benzo[d][1,2,3]triazol-5-yl)-3-(3-(((R)-2-ethyl-9-fluoro-2,3-dihydrobenzo[f][1,4]oxazepin-4(5H)-yl)methyl)-4-methylphenyl)propanoic acid, Sodium salt], the half-maximal effective concentration (EC50) under setting [1] was in the range of 10 to 100 nM.

For `CC[C@@H]1CN(Cc2cc(C(c3ccc4c(nnn4C)c3C)C(C)(C)C(=O)O)ccc2C)Cc2ccc(F)cc2O1` (stereo partly drawn) [Example 33, 3-(1,4-Dimethyl-1H-benzo[d][1,2,3]triazol-5-yl)-3-(3-(((R)-2-ethyl-8-fluoro-2,3-dihydrobenzo[f][1,4]oxaz-epin-4(5H)-yl)methyl)-4-methylphenyl)-2,2-dimethylpropanoic acid, formic acid salt], the EC50 under setting [1] was in the range of 10 to 100 nM.

With `CC[C@@H]1CN(Cc2cc([C@H](c3ccc4c(nnn4C)c3C)[C@H](C)C(=O)O)ccc2C)Cc2ccccc2O1` [Example 39, (2S,3R)-3-(1,4-Dimethyl-1H-benzo[d][1,2,3]triazol-5-yl)-3-(3-(((R)-2-ethyl-2,3-dihydrobenzo[f][1,4]oxazepin-4(5H)-yl)methyl)-4-methylphenyl)-2-methylpropanoic Acid], the EC50 under setting [1] was in the range of 10 to 100 nM.

On to `Cc1ccc(C(c2ccc3c(nnn3C)c2C)C(C)(C)C(=O)O)cc1Cn1ccnc1CN1C2CCC1CC2` (stereo not drawn) [Example 155, 3-(3-((2-(7-Azabicyclo[2.2.1]heptan-7-ylmethyl)-1H-imidazol-1-yl)methyl)-4-methylphenyl)-3-(1,4-dimethyl-1H-benzo[d][1,2,3]triazol-5-yl)-2,2-dimethylpropanoic Acid, Trifluoroacetic Acid Salt], for which the EC50 under setting [1] was in the range of 10 to 100 nM.

For the compound `Cc1ccc(C(c2ccc3c(nnn3C)c2C)C(C)(C)C(=O)O)cc1Cn1ccnc1CN1C2CCCC1CC2` (stereo not drawn) [Example 156, 3-(3-((2-(8-Azabicyclo[3.2.1]octan-8-ylmethyl)-1H-imidazol-1-yl)methyl)-4-methylphenyl)-3-(1,4-dimethyl-1H-benzo[d][1,2,3]triazol-5-yl)-2,2-dimethylpropanoic Acid, Trifluoroacetic Acid Salt], the EC50 under setting [1] is 10 to 100 nM.
